Source: ChEMBL document CHEMBL4433248, “SAR studies in the sulfonyl carboxamide class of HBV capsid assembly modulators” (Bioorg Med Chem Lett, 2019)
One block for each molecule: values may come before it.

What was measured:
[1] = Cytotoxicity against human HepG2.2.15 cells assessed as reduction in cell viability incubated for 3 days followed by replacement of fresh medium containing compound and measured after 3 days by cell titer glo-based luminescence assay; set-up: species or system HepG2 2.2.15
[2] = Solubility of the compound in DMSO; assay type: physicochemical
[3] = Half life in human hepatocytes; assay type: ADME, cell-based, Hepatocyte
[4] = Half life in human at 200 mg; assay type: ADME
Hepatitis B virus [5] = experiment: Antiviral activity against Hepatitis B virus infected in naive HBeAg positive patients assessed as log10 reduction in HBV DNA at 600 mg bid; assay type: functional
[6] = Lipophilicity, log P of the compound; assay type: physicochemical; conditions: octanol/water
[7] = Ratio of drug concentration in liver to plasma of CD1 mouse; assay type: ADME
[8] = Oral bioavailability in CD1 mouse at 10 mg/kg; assay type: ADME, organism-based; conditions: in vivo
[9] = Oral bioavailability in Mongrel dog at 3 mg/kg; assay type: ADME, organism-based, Canis lupus familiaris; conditions: in vivo
[10] = Half life in CD1 mouse at 10 mg/kg, po or 2 mg/kg, iv; assay type: ADME, organism-based; conditions: in vivo
[11] = Half life in Mongrel dog at 3 mg/kg, po or 1 mg/kg, iv; assay type: ADME, organism-based, Canis lupus familiaris; conditions: in vivo
[12] = Clearance in CD1 mouse at 10 mg/kg, po or 2 mg/kg, iv; assay type: ADME, organism-based; conditions: in vivo
[13] = Clearance in Mongrel dog at 3 mg/kg, po or 1 mg/kg, iv; assay type: ADME, organism-based, Canis lupus familiaris; conditions: in vivo
[14] = Volume of distribution at steady state in CD1 mouse at 10 mg/kg, po or 2 mg/kg, iv; assay type: ADME, organism-based; conditions: in vivo, read-out: Vdss
[15] = Volume of distribution at steady state in Mongrel dog at 3 mg/kg, po or 1 mg/kg, iv; assay type: ADME, organism-based, Canis lupus familiaris; conditions: in vivo, read-out: Vdss
[16] = AUC in CD1 mouse plasma at 5 mg/kg; assay type: ADME, organism-based; conditions: in vivo
[17] = AUC in CD1 mouse liver at 5 mg/kg; assay type: ADME, organism-based; conditions: in vivo
[18] = Half life in CD1 mouse hepatocytes; assay type: ADME, cell-based, Hepatocyte
[19] = Half life in Sprague-Dawley rat hepatocytes; assay type: ADME, cell-based, Hepatocyte
[20] = Half life in Mongrel dog hepatocytes; assay type: ADME, cell-based, Canis lupus familiaris, Hepatocyte
[21] = Half life in Sprague-Dawley rat at 10 mg/kg, po or 2 mg/kg, iv; assay type: ADME, organism-based; conditions: in vivo
[22] = Clearance in Sprague-Dawley rat at 10 mg/kg, po or 2 mg/kg, iv; assay type: ADME, organism-based; conditions: in vivo
[23] = Volume of distribution at steady state in Sprague-Dawley rat at 10 mg/kg, po or 2 mg/kg, iv; assay type: ADME, organism-based; conditions: in vivo, read-out: Vdss
Hepatitis B virus [24] = experiment: Ratio of EC50 for antiviral activity against Hepatitis B virus infected in human HepG2.2.15 cells in presence of 40% normal human serum to EC50 for antiviral activity against Hepatitis B virus infected in human HepG2.2.15 cells in absence of 40% normal human serum; assay type: functional
[25] = Stability in human hepatocytes; assay type: ADME, cell-based, Hepatocyte

solubility [2]: Insoluble
SMILES: CN1CCCN(S(=O)(=O)c2cc(C(=O)Nc3ccc(F)c(Cl)c3)ccc2F)CC1=O
CC50 at 72 h [1]: > 100 µM

SMILES: CC(O)C1CCCCN(S(=O)(=O)c2cc(C(=O)Nc3ccc(F)c(Cl)c3)ccc2F)C1 (stereo not drawn)
CC50 at 72 h [1]: 2.6 µM

half-life [3]: 0.817 h
SMILES: O=C(Nc1ccc(F)c(Cl)c1)c1ccc(F)c(S(=O)(=O)N2CCCCC(O)C2)c1 (stereo not drawn)
CC50 at 72 h [1]: 15 µM

half-life [3]: 0.267 h
SMILES: O=C(Nc1ccc(F)c(Cl)c1)c1ccc(F)c(S(=O)(=O)N2CCCCCC(O)C2)c1 (stereo not drawn)
CC50 at 72 h [1]: 11 µM

half-life [4]: 15 to 19 h
logP [6]: 3.2
Kp [7]: 6
SMILES: O=C(Nc1cc(F)c(F)c(F)c1)c1ccc(F)c(S(=O)(=O)N2CCC(O)CC2)c1
Activity (Hepatitis B virus [5]): 1.7 log10IU/ml

SMILES: O=C(Nc1ccc(F)c(Cl)c1)c1ccc(F)c(S(=O)(=O)N2CCCCCCC2O)c1 (stereo not drawn)
CC50 at 72 h [1]: 7 µM

SMILES: O=C(Nc1ccc(F)c(Cl)c1)c1ccc(F)c(S(=O)(=O)N2CCCCC(CO)C2)c1 (stereo not drawn)
CC50 at 72 h [1]: 3.1 µM

SMILES: COC1COCCN(S(=O)(=O)c2cc(C(=O)Nc3ccc(F)c(Cl)c3)ccc2F)C1 (stereo not drawn)
CC50 at 72 h [1]: 8.7 µM

half-life [3]: 0.0833 h
SMILES: O=C(Nc1ccc(F)c(Cl)c1)c1ccc(F)c(S(=O)(=O)N2CCCCC(O)CC2)c1 (stereo not drawn)
CC50 at 72 h [1]: 24 µM

half-life [3]: 1.28 h
SMILES: CC1(O)COCCN(S(=O)(=O)c2cc(C(=O)Nc3ccc(F)c(Cl)c3)ccc2F)C1 (stereo not drawn)
CC50 at 72 h [1]: 7.1 to 15 µM

SMILES: O=C(Nc1ccc(F)c(Cl)c1)c1ccc(F)c(S(=O)(=O)N2CCOCC(F)C2)c1 (stereo not drawn)
CC50 at 72 h [1]: 15 µM

half-life [3]: 4.63 h
SMILES: O=C(Nc1ccc(F)c(Cl)c1)c1ccc(F)c(S(=O)(=O)N2CCOCC(O)C2)c1 (racemic)
CC50 at 72 h [1]: 7.1 to 15 µM

SMILES: O=C(Nc1ccc(F)c(Cl)c1)c1ccc(F)c(S(=O)(=O)N2CCCCC(F)(F)C2)c1
CC50 at 72 h [1]: 11 µM

SMILES: CC1(O)CCCCN(S(=O)(=O)c2cc(C(=O)Nc3ccc(F)c(Cl)c3)ccc2F)C1 (stereo not drawn)
CC50 at 72 h [1]: 10 µM

half-life [3]: 8.58 h
bioavailability [8]: 12%
bioavailability [9]: 22%
half-life [10]: 3.2 h
half-life [11]: 4.6 h
clearance [12]: 34 mL/min/kg
clearance [13]: 6.4 mL/min/kg
Vd [14]: 4.1 L/kg
Vd [15]: 1.3 L/kg
AUC [16]: 0.73 µM·h
AUC [17]: 55.4 µM·h
logP ([6]; read-out: logP): 2.9
Kp [7]: 76
half-life [18]: 3.72 h
half-life [19]: 0.467 h
half-life [20]: 3.23 h
SMILES: O=C(Nc1ccc(F)c(Cl)c1)c1ccc(F)c(S(=O)(=O)N2C[C@H](O)CC[C@H](O)C2)c1

SMILES: O=C(Nc1ccc(F)c(Cl)c1)c1ccc(F)c(S(=O)(=O)N2CCCC(O)CC2)c1 (stereo not drawn)
CC50 at 72 h [1]: 29 µM

SMILES: CC1(O)CCCN(S(=O)(=O)c2cc(C(=O)Nc3ccc(F)c(Cl)c3)ccc2F)CC1 (stereo not drawn)
CC50 at 72 h [1]: 11 µM

SMILES: CN1CCN(S(=O)(=O)c2cc(C(=O)Nc3ccc(F)c(Cl)c3)ccc2F)CC(O)C1 (stereo not drawn)
CC50 at 72 h [1]: 31 µM

bioavailability [8]: 78%
bioavailability [9]: 53%
half-life [10]: 2.6 h
half-life [21]: 0.6 h
half-life [11]: 4.6 h
clearance [12]: 28 mL/min/kg
clearance [22]: 88 mL/min/kg
clearance [13]: 5.4 mL/min/kg
Vd [14]: 4.1 L/kg
Vd [23]: 3.3 L/kg
Vd [15]: 1.3 L/kg
logP ([6]; read-out: logP): 2.6
Kp [7]: 15
half-life [18]: 0.8 h
half-life [19]: 0.467 h
half-life [20]: 4.63 h
Stability [25]: Stable
SMILES: O=C(Nc1ccc(F)c(Cl)c1)c1ccc(F)c(S(=O)(=O)N2CCOC[C@H](O)C2)c1
CC50 at 72 h [1]: 19 µM
Ratio EC50 (Hepatitis B virus [24]): 6

SMILES: O=C(Nc1ccc(F)c(Cl)c1)c1ccc(F)c(S(=O)(=O)N2CCSCC(O)C2)c1 (stereo not drawn)
CC50 at 72 h [1]: 19 µM

SMILES: O=C(Nc1ccc(F)c(Cl)c1)c1ccc(F)c(S(=O)(=O)N2CCOC[C@@H](O)C2)c1
CC50 at 72 h [1]: 14 µM
